Measured values: US20250011368A1, “DLL3 TARGETING PEPTIDES AND CONSTRUCTS THEREOF” (MARIANA ONCOLOGY INC., priority 2023, published 2025)
pKd: −log10 of the molar value. Bridge positions count the residues as written; N and C are the ends. Square brackets hold non-standard residues; d marks the D form. Peptide text beside a SMILES is read from it. * marks the point of attachment. ξ: configuration not given here. X11 = O=C(O)CN1CCN(CC(=O)O)CCN(CC(=O)NCCCC[C@@H](NC(=O)COCCOCCOCCOCCOCCOCCOCCOCCNC(=O)Cc2ccc(Br)cc2)C(=O)NCCOCCOCCOCCOCCOCCOCCOCCOCC(=O)*)CCN(CC(=O)O)CC1; TtdsdLys(DOTA)NH2 = NC(=O)[C@@H](CCCCNC(=O)CN1CCN(CC(=O)O)CCN(CC(=O)O)CCN(CC(=O)O)CC1)NC(=O)CCC(=O)NCCCOCCOCCOCCCN*; DOTA = O=C(O)CN1CCN(CC(=O)O)CCN(CC(=O)*)CCN(CC(=O)O)CC1; Phe(4-CF3) = N[C@@H](Cc1ccc(C(F)(F)F)cc1)C(=O)O; Trp(5-F) = N[C@@H](Cc1c[nH]c2ccc(F)cc12)C(=O)O; Trp(7-Me) = Cc1cccc2c(C[C@H](N)C(=O)O)c[nH]c12; Trp(7-aza) = N[C@@H](Cc1c[nH]c2ncccc12)C(=O)O; Pro(trans-4-F) = O=C(O)[C@@H]1C[C@@H](F)CN1; PEG8 = NCCOCCOCCOCCOCCOCCOCCOCCOCCC(=O)O; Phe(4-F) = N[C@@H](Cc1ccc(F)cc1)C(=O)O; 2Nal = N[C@@H](Cc1ccc2ccccc2c1)C(=O)O; Gly(4-THP) = N[C@H](C(=O)O)C1CCOCC1; 3Pal = N[C@@H](Cc1cccnc1)C(=O)O; ξThr(3R) = C[C@@H](O)C(N)C(=O)O; Cha = N[C@@H](CC1CCCCC1)C(=O)O; Cba = N[C@@H](CC1CCC1)C(=O)O; Chg = N[C@H](C(=O)O)C1CCCCC1; Tle = CC(C)(C)[C@H](N)C(=O)O; Nle = CCCC[C@H](N)C(=O)O; Aze = O=C(O)[C@@H]1CCN1; ξK = NCCCCC(N)C(=O)O; Sar = CNCC(=O)O

Target: T1, human DLL3 (Homo sapiens, UniProt Q9NYJ7)
T1 sequence (Q9NYJ7 27-618): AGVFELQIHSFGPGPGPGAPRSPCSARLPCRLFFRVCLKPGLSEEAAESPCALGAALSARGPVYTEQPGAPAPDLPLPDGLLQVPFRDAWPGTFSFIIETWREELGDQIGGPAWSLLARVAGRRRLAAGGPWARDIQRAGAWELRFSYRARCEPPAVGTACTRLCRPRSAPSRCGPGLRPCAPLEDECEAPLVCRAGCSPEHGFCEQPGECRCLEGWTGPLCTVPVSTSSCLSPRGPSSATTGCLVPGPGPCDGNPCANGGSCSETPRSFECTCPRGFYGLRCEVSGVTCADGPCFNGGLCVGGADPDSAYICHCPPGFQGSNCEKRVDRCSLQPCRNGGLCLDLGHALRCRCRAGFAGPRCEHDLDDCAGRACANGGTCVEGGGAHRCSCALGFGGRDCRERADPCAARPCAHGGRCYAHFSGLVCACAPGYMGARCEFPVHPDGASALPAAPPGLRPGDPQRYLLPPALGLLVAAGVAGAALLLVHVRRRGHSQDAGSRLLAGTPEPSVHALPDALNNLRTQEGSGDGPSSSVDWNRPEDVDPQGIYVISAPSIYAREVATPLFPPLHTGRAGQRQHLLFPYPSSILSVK
Assay: Affinity determination by Surface Plasmon Resonance (SPR)
Type: binding
Details: not given
Procedure, shortened: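 Kinetic and affinity constants were derived by fitting sensorgrams to a 1:1 binding model. Graded compound concentrations flowed at 100 μL/minute in 20 mM phosphate running buffer with 2% DMSO over streptavidin-immobilized biotinylated human DLL3, reference-subtracted.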

Compound | pKd
CC[C@H](C)[C@H](NC(=O)[C@@H](NC(=O)[C@H](Cc1c[nH]c2ccccc12)NC(C)=O)[C@@H](C)O)C(=O)N[C@H]1CSSC[C@@H](C(=O)N[C@@H](Cc2c[nH]c3ccccc23)C(=O)N2CCC[C@H]2C(=O)N[C@H](CCCCNC(=O)COCCOCCOCCOCCOCCOCCOCCOCCNC(=O)[C@@H](CCCCNC(=O)CN2CCN(CC(=O)O)CCN(CC(=O)O)CCN(CC(=O)O)CC2)NC(=O)COCCOCCOCCOCCOCCOCCOCCOCCNC(=O)Cc2ccc(Br)cc2)C(N)=O)NC(=O)[C@H](CC(=O)O)NC(=O)[C@H](Cc2c[nH]cn2)NC(=O)[C@H](Cc2ccc3ccccc3c2)NC(=O)[C@H](CC(N)=O)NC(=O)[C@H](CC(N)=O)NC1=O [compound 251, Ac-W-T-I-C(3)-N-N-(2Nal)-H-D-C(3)-W-P-{D-Lys[PEG8-D-Lys(DOTA)-PEG8-COCH2Ph-4Br]}-NH2] (Ac-WTICNN[2Nal]HDCWP[dK](X11)-NH2; disulfide 4-10) | > 9.00

Same assay, conditions: 25° C., biotinylated human DLL3 immobilized on streptavidin sensor chip, 1:1 binding model; read-out: SPR KD

Compound | pKd
CC(=O)N[C@@H](Cc1c[nH]c2ccc(F)cc12)C(=O)N[C@H](C(=O)N[C@H](C(=O)N[C@H]1CSSC[C@@H](C(=O)N[C@@H](Cc2c[nH]c3ncccc23)C(=O)N2CC[C@H]2C(=O)NC(CCCCNC(=O)CN2CCN(CC(=O)O)CCN(CC(=O)O)CCN(CC(=O)O)CC2)C(N)=O)NC(=O)[C@H](CC(=O)O)NC(=O)[C@H](Cc2cnc[nH]2)NC(=O)[C@H](Cc2ccc(F)cc2)NC(=O)[C@H](CC(N)=O)NC(=O)[C@H](CC(N)=O)NC1=O)C1CCOCC1)[C@@H](C)O (stereo partly drawn) [compound 123, Ac-(5Fluoro-W)-T-(THPG)-C(3)-N-N-(4Fluoro-F)-H-D-C(3)-(7Aza-W)-(Aze)-[D-Lys(DOTA)]-NH2] (Ac-[Trp(5-F)]T[Gly(4-THP)]CNN[Phe(4-F)]HDC[Trp(7-aza)][Aze][ξK](DOTA)-NH2; disulfide 4-10) | 7.00 to 8.00
CC[C@H](C)[C@H](NC(=O)[C@@H](NC(=O)[C@H](Cc1c[nH]c2ccccc12)NC(C)=O)[C@@H](C)O)C(=O)N[C@H]1CSSC[C@@H](C(=O)N[C@@H](Cc2c[nH]c3ccccc23)C(=O)N2CCC[C@H]2C(=O)NCC(=O)NCC(=O)NCCCOCCOCCOCCCNC(=O)CCC(=O)N[C@H](CCCCNC(=O)CN2CCN(CC(=O)O)CCN(CC(=O)O)CCN(CC(=O)O)CC2)C(N)=O)NC(=O)[C@H](CC(=O)O)NC(=O)[C@H](Cc2cnc[nH]2)NC(=O)[C@H](Cc2ccc3ccccc3c2)NC(=O)[C@H](CC(N)=O)NC(=O)[C@H](CC(N)=O)NC1=O [compound 167, Ac-W-T-I-C(3)-N-N-(2Nal)-H-D-C(3)-W-P-G-G-TTDS-[D-Lys(DOTA)]-NH2] (Ac-WTICNN[2Nal]HDCWPGG-{TtdsdLys(DOTA)NH2}; disulfide 4-10) | > 9.00
CC(=O)N[C@@H](Cc1c[nH]c2ccccc12)C(=O)N[C@H](C(=O)N[C@H](C(=O)N[C@H]1CSSC[C@@H](C(=O)N[C@@H](Cc2c[nH]c3ccccc23)C(=O)N2CCC[C@H]2C(=O)N[C@H](CCCCNC(=O)CN2CCN(CC(=O)O)CCN(CC(=O)O)CCN(CC(=O)O)CC2)C(N)=O)NC(=O)[C@H](CC(=O)O)NC(=O)[C@H](Cc2cnc[nH]2)NC(=O)[C@H](Cc2ccc3ccccc3c2)NC(=O)[C@H](CC(N)=O)NC(=O)[C@H](Cc2cccnc2)NC1=O)C(C)(C)C)[C@@H](C)O [compound 288, Ac-W-T-(Tbg)-C(3)-(3Pya)-N-(2Nal)-H-D-C(3)-W-P-[D-Lys(DOTA)]-NH2] (Ac-WT[Tle]C[3Pal]N[2Nal]HDCWP[dK](DOTA)-NH2; disulfide 4-10) | > 9.00
CCCC[C@H](NC(=O)[C@@H](NC(=O)[C@H](Cc1c[nH]c2ccc(F)cc12)NC(C)=O)[C@@H](C)O)C(=O)N[C@H]1CSSC[C@@H](C(=O)N[C@@H](Cc2c[nH]c3ncccc23)C(=O)N2C[C@H](F)C[C@H]2C(=O)N[C@H](CCCCNC(=O)CN2CCN(CC(=O)O)CCN(CC(=O)O)CCN(CC(=O)O)CC2)C(N)=O)NC(=O)[C@H](CC(=O)O)NC(=O)[C@H](Cc2c[nH]cn2)NC(=O)[C@H](Cc2ccc(C(F)(F)F)cc2)NC(=O)[C@H](CC(N)=O)NC(=O)[C@H](CC(N)=O)NC1=O [compound 148, Ac-(5Fluoro-W)-T-(Nle)-C(3)-N-N-(4CF3-F)-H-D-C(3)-(7Aza-W)-(trans4Fluoro-P)-[D-Lys(DOTA)]-NH2] (Ac-[Trp(5-F)]T[Nle]CNN[Phe(4-CF3)]HDC[Trp(7-aza)][Pro(trans-4-F)][dK](DOTA)-NH2; disulfide 4-10) | 8.00 to 9.00
CC(=O)N[C@@H](Cc1c[nH]c2ccccc12)C(=O)NC(C(=O)N[C@H](C(=O)N[C@H]1CSSC[C@@H](C(=O)N[C@@H](Cc2c[nH]c3ncccc23)C(=O)N2CCC[C@H]2C(=O)N[C@H](CCCCNC(=O)CN2CCN(CC(=O)O)CCN(CC(=O)O)CCN(CC(=O)O)CC2)C(N)=O)NC(=O)[C@H](CC(=O)O)NC(=O)[C@H](Cc2cnc[nH]2)NC(=O)[C@H](Cc2ccc3ccccc3c2)NC(=O)[C@H](CC(N)=O)NC(=O)[C@H](C)NC1=O)C1CCCCC1)[C@@H](C)O (stereo partly drawn) [compound 194, Ac-W-T-(Chg)-C(3)-A-N-(2Nal)-H-D-C(3)-(7-Aza-W)-P-[D-Lys(DOTA)]-NH2] (Ac-W[ξThr(3R)][Chg]CAN[2Nal]HDC[Trp(7-aza)]P[dK](DOTA)-NH2; disulfide 4-10) | > 9.00
CC[C@H](C)[C@H](NC(=O)[C@@H](NC(=O)[C@H](Cc1c[nH]c2ccccc12)NC(C)=O)[C@@H](C)O)C(=O)N[C@H]1CSSC[C@@H](C(=O)N[C@@H](Cc2c[nH]c3c(C)cccc23)C(=O)N2CCC[C@H]2C(=O)N[C@H](CCCCNC(=O)CN2CCN(CC(=O)O)CCN(CC(=O)O)CCN(CC(=O)O)CC2)C(N)=O)NC(=O)[C@H](CC(=O)O)NC(=O)[C@H](Cc2cnc[nH]2)NC(=O)[C@H](Cc2c[nH]c3ccccc23)NC(=O)[C@H](CC(N)=O)NC(=O)[C@H](CC(N)=O)NC1=O [compound 298, Ac-W-T-I-C(3)-N-N-W-H-D-C(3)-(7-Me-W)-P-[D-Lys(DOTA)]-NH2] (Ac-WTICNNWHDC[Trp(7-Me)]P[dK](DOTA)-NH2; disulfide 4-10) | > 9.00
CC[C@H](C)[C@H](NC(=O)[C@@H](NC(=O)[C@H](Cc1c[nH]c2ccccc12)NC(C)=O)[C@@H](C)O)C(=O)N[C@H]1CSSC[C@@H](C(=O)N[C@@H](Cc2c[nH]c3ccccc23)C(=O)N2CCC[C@H]2C(=O)N2CCC[C@@H]2C(=O)NCCOCCOCCOCCOCCOCCOCCOCCOCCC(=O)N[C@H](CCCCNC(=O)CN2CCN(CC(=O)O)CCN(CC(=O)O)CCN(CC(=O)O)CC2)C(N)=O)NC(=O)[C@H](CC(=O)O)NC(=O)[C@H](Cc2cnc[nH]2)NC(=O)[C@H](Cc2ccc3ccccc3c2)NC(=O)[C@H](CC(N)=O)NC(=O)[C@H](CC(N)=O)NC1=O [compound 235, Ac-W-T-I-C(3)-N-N-(2Nal)-H-D-C(3)-W-P-(D-Pro)-PEG8-[D-Lys(DOTA)]-NH2] (Ac-WTICNN[2Nal]HDCWP[dP][PEG8][dK](DOTA)-NH2; disulfide 4-10) | > 9.00
CC[C@H](C)[C@H](NC(=O)[C@@H](NC(=O)[C@H](Cc1c[nH]c2ccccc12)NC(C)=O)[C@@H](C)O)C(=O)N[C@H]1CSSC[C@@H](C(=O)N[C@@H](Cc2c[nH]c3ccccc23)C(=O)N(C)CC(=O)N[C@H](CCCCNC(=O)CN2CCN(CC(=O)O)CCN(CC(=O)O)CCN(CC(=O)O)CC2)C(N)=O)NC(=O)[C@H](CC(=O)O)NC(=O)[C@H](Cc2cnc[nH]2)NC(=O)[C@H](Cc2c[nH]c3ccccc23)NC(=O)[C@H](CC(N)=O)NC(=O)[C@H](CC(N)=O)NC1=O [compound 227, Ac-W-T-I-C(3)-N-N-W-H-D-C(3)-W-Sar-[D-Lys(DOTA)]-NH2] (Ac-WTICNNWHDCW[Sar][dK](DOTA)-NH2; disulfide 4-10) | 8.00 to 9.00
CC(=O)N[C@@H](Cc1c[nH]c2ccc(F)cc12)C(=O)N[C@H](C(=O)N[C@@H](CC1CCCCC1)C(=O)N[C@H]1CSSC[C@@H](C(=O)N[C@@H](Cc2c[nH]c3ncccc23)C(=O)N2CC[C@H]2C(=O)N[C@H](CCCCNC(=O)CN2CCN(CC(=O)O)CCN(CC(=O)O)CCN(CC(=O)O)CC2)C(N)=O)NC(=O)[C@H](CC(=O)O)NC(=O)[C@H](Cc2cnc[nH]2)NC(=O)[C@H](Cc2ccc(C(F)(F)F)cc2)NC(=O)[C@H](CC(N)=O)NC(=O)[C@H](CC(N)=O)NC1=O)[C@@H](C)O [compound 141, Ac-(5Fluoro-W)-T-(CHA)-C(3)-N-N-(4CF3-F)-H-D-C(3)-(7Aza-W)-(Aze)-[D-Lys(DOTA)]-NH2] (Ac-[Trp(5-F)]T[Cha]CNN[Phe(4-CF3)]HDC[Trp(7-aza)][Aze][dK](DOTA)-NH2; disulfide 4-10) | 8.00 to 9.00
CC(=O)N[C@@H](Cc1c[nH]c2ccc(F)cc12)C(=O)N[C@H](C(=O)N[C@@H](CC1CCC1)C(=O)N[C@H]1CSSC[C@@H](C(=O)N[C@@H](Cc2c[nH]c3ncccc23)C(=O)N2C[C@H](F)C[C@H]2C(=O)N[C@H](CCCCNC(=O)CN2CCN(CC(=O)O)CCN(CC(=O)O)CCN(CC(=O)O)CC2)C(N)=O)NC(=O)[C@H](CC(=O)O)NC(=O)[C@H](Cc2cnc[nH]2)NC(=O)[C@H](Cc2ccc(C(F)(F)F)cc2)NC(=O)[C@H](CC(N)=O)NC(=O)[C@H](CC(N)=O)NC1=O)[C@@H](C)O [compound 150, Ac-(5Fluoro-W)-T-(CBA)-C(3)-N-N-(4CF3-F)-H-D-C(3)-(7Aza-W)-(trans4Fluoro-P)-[D-Lys(DOTA)]-NH2] (Ac-[Trp(5-F)]T[Cba]CNN[Phe(4-CF3)]HDC[Trp(7-aza)][Pro(trans-4-F)][dK](DOTA)-NH2; disulfide 4-10) | 8.00 to 9.00
